Measurements reported in patent US4914086A, “Method for treating African human and veterinary trypanosomiases” (priority 1987, dated 1990).

Tested on: T. b. brucei TREU 667
Test: CNS model, T. b. brucei TREU 667 infection in mice (Table 4)
Type: in vivo, Trypanosoma brucei brucei (in Swiss-Webster mice)
Conditions: for efficacy in CNS model in words: TREU 667
From the text: T. b. brucei EATRO 110 isolate was maintained as described (Bacchi, C. J., H. C. Nathan, S. H. Hutner, P. P. McCann and A. Sjoerdsma; Polyamine metabolism: a potential chemotherapeutic target in trypanosomes. Science 210: 332-334, 1980). It produces an acute, rapidly fatal parasitemia which is lethal to mice 3-5 days after inoculation. Two T. B. brucei strains, TREU 667 and LUMP 1001 developed by Jennings and coworkers (Jennings, F. W., D. D. Whitelaw and G. M. Urquhart; The relationship between duration of infection with Trypanosoma brucei in mice and the efficacy of chemotherapy. Parasitology 75: 143-153, 1977/Jennings, F. W. and G. D. Gray; Relapsed parasitemia following chemotherapy of chronic T. brucei infections in mice and its relation to cerebral trypanosomes; Contr. Microbiol. Immunol. 7 147-154, 1983) were used as CNS models. Both produce infections which are refractory to Berenil® (diminazene aceturate) and develop within 21 days after inoculation. They are not usually fatal until >40 days after inoculation. LUMP 1001 causes a more virulent CNS infection than TREU 667, and is regarded as more difficult to cure (Jennings, F. W. and G. D. Gray. Relapsed parasitemia following chemotherapy of chronic T. brucei infections in mice and its relation to cerebral trypanosomes. Contr. Microbiol. Immunol. 7 147-154, 1983).
The models for […] nervous system infections used TREU 667 and LUMP 1001 strains which were stored frozen and passaged once in rats before infection of mice. Maintenance and use of these screens were as described (Clarkson, A. B. Jr., C. J. Bacchi, G. H. Mellon, H. C. Nathan, P. P. McCann and A. Sjoerdsma. Efficacy of DFMO+blemoycin in a mouse model of central nervous system African trypanosomiasis. Proc. Natl. Acad. Sci. USA. 80: 5729-5733, 1983/Clarkson, A. B. Jr., E. J. Biene, C. J. Bacchi, P. P. McCann, S. H. Hutner and A. Sjoerdsma. New drug combination for experimental late stage African trypanosomiasis: DFMO with suramin. Am. J. Trop. Med. Hyg. 33: 1073-1077, 1984/Dube, D. K., G. Mpimbaza, A. C. Allison, E. Lederer and L. Rovis. Antitrypanosomal activity of sinefungin, Am. J. Trop. Med. Hyg. 32: 31-33, 1983/Fish, W. R., J. J. Marr, R. L. Berens, D. L. Looker, D. J. Nelson, S. LaFon and A. E. Balber. Inosine analogs as chemotherapeutic agents for African trypanosomes: metabolism in trypanosomes and efficacy in tissue culture. Anti-microb. Ag. Chemother. 27: 33-36, 1985/Clazer, R. I., and L. S. Lloyd. Effects of 8-azaadenosine and formycin on cell lethality and the synthesis and methylation of nucleic acids in human colon carcinoma cells in culture. Biochem. Pharmacol. 31: 3207-3214, 1982/Bacchi, C. J., H. C. Nathan, A. B. Clarkson, Jr., E. J. Bienen, A. J. Bitonti, P. P. McCann and A. Sjoerdsma. Activity of the ornithine decarboxylase inhibitors DL-α-difluoromethylornithine and monofluormethyldehydroornithine methylester alone and in combination with suramin against Trypanosoma brucei brucei central nervous system models, Am. J. Trop. Med. Hyg. (in press)). Briefly, groups of 100-120 mice were infected and the infections allowed to develop until day 21, when the animals were separated into groups of 10 and therapy commenced. Controls were treated with Berenil (40 mg/kg) on day 21. These always relapsed 40-70 days after treatment. Parasitemia was followed by examining tail vein blood smears once weekly. Animals which had relapsed were removed from cages. TREU 667 infections were followed >225 days after inoculation and LUMP 1001 were followed >280 days, as determined by the relapse pattern in previous work (Bacchi, C. J., H. C. Nathan, A. B. Clarkson, Jr., E. J. Bienen, A. J. Bitonti, P. P. McCann and A. Sjoerdsma. Activity of the ornithine decarboxylase inhibitors DL-α-difluoromethylornithine and monofluormethyldehydroornithine methylester alone and in combination with suramin against Trypanosoma brucei brucei central nervous system models. Am. J. Trop. Med. Hyg. (in press)). […]

## O=c1[nH]cnc2c([C@@H]3O[C@H](CO)[C@@H](O)[C@H]3O)c[nH]c12 [9-DINO, 7-beta-D-ribofuranosyl-4-oxo-3H, 5H-pyrrolo (3,2-d) pyrimidine]
5 mg/kg i.p., 7 days
  # Cured/Total: 0/5
  % Cured: 0%
  Avg. Day of Relapse (Range): 41 days
10 mg/kg i.p., 7 days
  # Cured/Total: 0/5
  % Cured: 0%
  Avg. Day of Relapse (Range): 41 days
25 mg/kg i.p., 7 days
  # Cured/Total: 1/5
  % Cured: 20%
  Avg. Day of Relapse (Range): 60 (41-135) Day
100 mg/kg i.p., 7 days
  # Cured/Total: 0/20
  % Cured: 0%
  Avg. Day of Relapse (Range): 49 (35-58) Day
250 mg/kg i.p., 7 days
  # Cured/Total: 3/10
  % Cured: 30%
  Avg. Day of Relapse (Range): 68 (45-86) Day
  efficacy in CNS model in words: did not cure CNS infections

## Nc1ncnc2c1ncn2[C@@H]1O[C@H](C[C@@H](N)CC[C@H](N)C(=O)O)[C@@H](O)[C@H]1O [Sinefungin, 6,9-Diamino-1-(6-amino-9H-purin-9-yl)-1,5,6,7,8,9-hexadeoxy-beta-D-ribo-decofuranuronic acid]
2.5 mg/kg i.p., 4 days
  # Cured/Total: 0/18
  % Cured: 0%
  Avg. Day of Relapse (Range): 39 (35-56) Day
5 mg/kg i.p., 4 days
  # Cured/Total: 0/10
  % Cured: 0%
  Avg. Day of Relapse (Range): 41 (35-46) Day
10 mg/kg i.p., 3 days
  # Cured/Total: 0/10
  % Cured: 0%
  Avg. Day of Relapse (Range): 38 (35-46) Day
10 mg/kg i.p., 7 days
  # Cured/Total: 6/10
  % Cured: 60%
  Avg. Day of Relapse (Range): 124 (35-209) Day
  efficacy in CNS model in words: did not produce complete cures
